This note sets out measurements from patent US11529354B2, “Methods and compositions for the treatment of tuberculosis” (PRESIDENT AND FELLOWS OF HARVARD COLLEGE, priority 2017, dated 2022).

Assay [1] concerns MDR-MTB isolates LZ94 and LZ99. The assay is described as follows: microbe, parasite or virus in culture. The class given is cell-based, Mycobacterium tuberculosis.
Assay [2] deals with clinical Mycobacterium tuberculosis strains (HrRr: 77#, 76#, 80#). The assay is described as follows: microbe, parasite or virus in culture. Type of assay: cell-based. The settings on record: for MIC: Mycobacterium tuberculosis.
Setting [3] is: Mycobacterium tuberculosis, read-out: MIC.

Values after ≈ are worked out from the molar mass of the structure shown. Read-outs that look alike come from different tables or passages of the source.

Take `CO[C@H]1/C=C/O[C@@]2(C)Oc3c(C)c(O)c4c(O)c(c(/C=N/N5CCN(C)CC5)c(O)c4c3C2=O)NC(=O)/C(C)=C\C=C\[C@H](C)[C@H](O)[C@@H](C)[C@@H](O)[C@@H](C)[C@H](OC(C)=O)[C@@H]1C` [Rifampicin, reference compound]: in assay [1] (Mycobacterium tuberculosis), the MIC came out at 2 µg/mL (≈ 2.43 µM).

As for `Cc1ccc2[nH]c3c(c2c1)CCCC3NCc1ccccc1` (stereo not shown) [CAS 118498-98-9, N-benzyl-6-methyl-2,3,4,9-tetrahydro-1H-carbazol-1-amine], in assay [2], the “concentration increase required to inhibit the drug resistant strains” value is reported as “four-fold”. For the same compound, the MIC is 3.2 µg/mL (≈ 11 µM) in assay [2]; 25.6 µg/mL (≈ 88.2 µM) in assay [2] (strain 76#, HrRr); 25.6 µg/mL (≈ 88.2 µM) in assay [2] (strain 80#, HrRr).

As to `Cn1ccc(=Nc2ccc(NC(=O)c3ccc(N=c4ccn(C)c5ccc([N+](=O)[O-])cc45)cc3)cc2)cc1` [NSC 260594, 4-[(1-methyl-6-nitroquinolin-4-ylidene)amino]-N-[4-[(1-methylpyridin-4-ylidene)amino]phenyl]benzamide], the MIC stood at 1.25 µg/mL (≈ 2.48 µM) in assay [1]; 0.625 µg/mL (≈ 1.24 µM) in assay [1] (Mycobacterium tuberculosis, Table 7 and text, […], read-out: MIC); 0.625 µg/mL (≈ 1.24 µM) in assay [1] (setting [3]); 1.25 µg/mL (≈ 2.48 µM) in assay [1] (Table 7 and text, […], listed as Formula XI).

As to `CO[C@@H]1[C@@H](OC(=O)c2ccc(C)[nH]2)[C@@H](O)[C@H](Oc2ccc3c(O)c(NC(=O)c4ccc(O)c(CC=C(C)C)c4)c(=O)oc3c2Cl)OC1(C)C` [NSC 227186, [(3R,4S,5R,6S)-6-[8-chloro-4-hydroxy-3-[[4-hydroxy-3-(3-methylbut-2-enyl)benzoyl]amino]-2-oxochromen-7-yl]oxy-5-hydroxy-3-methoxy-2,2-dimethyloxan-4-yl]5-methyl-1H-pyrrole-2-carboxylate], in assay [1] (setting [3]), the MIC was found to be 0.625 µg/mL (≈ 0.897 µM).
